Four compounds from paper PMC6275283, “Inhibitors of BMP‐1/tolloid‐like proteinases: efficacy, selectivity and cellular toxicity” (FEBS Open Bio, 2018) can be followed below.

One test deals with T1, Meprin α (Homo sapiens, UniProt Q16819).
T1 construct: gene MEP1A
T1 sequence (Q16819 66-712): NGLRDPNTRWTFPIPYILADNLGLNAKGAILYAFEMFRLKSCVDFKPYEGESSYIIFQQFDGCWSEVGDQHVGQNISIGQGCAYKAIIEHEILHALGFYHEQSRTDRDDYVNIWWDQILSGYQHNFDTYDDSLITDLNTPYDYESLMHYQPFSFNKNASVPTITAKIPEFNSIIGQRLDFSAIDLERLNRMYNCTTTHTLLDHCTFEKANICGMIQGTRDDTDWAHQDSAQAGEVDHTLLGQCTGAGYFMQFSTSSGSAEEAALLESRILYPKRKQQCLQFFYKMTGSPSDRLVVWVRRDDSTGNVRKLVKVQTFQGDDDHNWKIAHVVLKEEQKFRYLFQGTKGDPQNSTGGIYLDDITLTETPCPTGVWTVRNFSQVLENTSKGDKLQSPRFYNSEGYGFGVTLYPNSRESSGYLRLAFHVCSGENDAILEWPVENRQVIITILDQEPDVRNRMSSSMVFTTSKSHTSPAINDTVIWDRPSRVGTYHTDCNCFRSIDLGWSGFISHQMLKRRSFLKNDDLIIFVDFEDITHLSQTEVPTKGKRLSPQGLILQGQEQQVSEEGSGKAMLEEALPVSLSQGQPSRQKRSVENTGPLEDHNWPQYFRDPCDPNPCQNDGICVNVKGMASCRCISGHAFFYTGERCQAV
As to the kind of experiment: fluorogenic peptide cleavage assay. Type of test: biochemical. The text has this: fluorogenic peptide cleavage assay on Meprin α

For the next test, the target named is T2, Meprin β (Homo sapiens, UniProt Q16820).
T2 construct: gene MEP1B
T2 sequence (Q16820 62-652): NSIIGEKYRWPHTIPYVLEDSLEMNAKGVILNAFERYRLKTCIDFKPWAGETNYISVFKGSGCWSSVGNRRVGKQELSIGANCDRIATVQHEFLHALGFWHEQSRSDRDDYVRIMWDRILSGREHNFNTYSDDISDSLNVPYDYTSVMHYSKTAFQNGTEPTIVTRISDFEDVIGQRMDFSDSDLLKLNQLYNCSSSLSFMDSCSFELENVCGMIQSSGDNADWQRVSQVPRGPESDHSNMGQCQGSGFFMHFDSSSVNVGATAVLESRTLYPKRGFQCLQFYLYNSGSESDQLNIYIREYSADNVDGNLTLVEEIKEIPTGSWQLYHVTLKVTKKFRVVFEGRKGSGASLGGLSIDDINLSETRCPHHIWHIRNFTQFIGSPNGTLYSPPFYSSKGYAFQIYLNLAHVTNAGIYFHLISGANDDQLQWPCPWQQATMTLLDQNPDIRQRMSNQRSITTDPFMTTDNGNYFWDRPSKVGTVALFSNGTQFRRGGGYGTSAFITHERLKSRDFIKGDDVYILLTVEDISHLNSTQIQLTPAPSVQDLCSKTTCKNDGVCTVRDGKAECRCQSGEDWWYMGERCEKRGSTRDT
The experiment in a line: fluorogenic peptide cleavage assay. Type of test: biochemical. The source says: fluorogenic peptide cleavage assay on Meprin β

The mark [1] stands for this setting: […] Mca-YVADAPK-Dnp, […] enzyme, […] HEPES pH […] NaCl, […] CaCl2, […] °C.

Like-named read-outs stand apart in the source and are kept apart here.

For the compound `CNC(=O)[C@H](Cc1c[nH]c2ccccc12)NC(=O)[C@@H](CC(=O)NO)CC(C)C` [GM6001], the figures for the IC50 against Meprin α and against Meprin β were 185 ± 12 nM and over 10000 nM, respectively.
As to FG‐2575, the IC50 at Meprin α (setting [1]) was over 1000 nM; against Meprin β (setting [1]), over 10000 nM.
`COc1ccc(CCN(CCC(=O)NO)S(=O)(=O)c2ccc(NC(=O)NCCc3ccccc3)cc2)cc1` [S33A]: the IC50 on Meprin α is 393 ± 82 nM; against Meprin β, over 10000 nM.
Turning to `CCCCC[C@H](CC(=O)NO)C(=O)N[C@H](C(=O)N1CCC[C@H]1CO)C(C)C` [Actinonin], the 50% inhibitory concentration (IC50) on Meprin α was 55 ± 11 nM; against Meprin β, 744 ± 29 nM.
